Structures are written as SMILES.

A word on the EC50: it is the concentration needed to bring the measured effect to its halfway point. What is called melting point is the temperature, or range, at which the solid turns liquid.

One data set concerns the target T1, GST-hLGK1 (human liver GK) (Homo sapiens, UniProt P35557).
T1 construct: made in house; host or cells: Escherichia coli BL21 (Stratagene), plasmid pGEX6P-2/hLGK1
T1 sequence (P35557 1-464 isoform P35557-3): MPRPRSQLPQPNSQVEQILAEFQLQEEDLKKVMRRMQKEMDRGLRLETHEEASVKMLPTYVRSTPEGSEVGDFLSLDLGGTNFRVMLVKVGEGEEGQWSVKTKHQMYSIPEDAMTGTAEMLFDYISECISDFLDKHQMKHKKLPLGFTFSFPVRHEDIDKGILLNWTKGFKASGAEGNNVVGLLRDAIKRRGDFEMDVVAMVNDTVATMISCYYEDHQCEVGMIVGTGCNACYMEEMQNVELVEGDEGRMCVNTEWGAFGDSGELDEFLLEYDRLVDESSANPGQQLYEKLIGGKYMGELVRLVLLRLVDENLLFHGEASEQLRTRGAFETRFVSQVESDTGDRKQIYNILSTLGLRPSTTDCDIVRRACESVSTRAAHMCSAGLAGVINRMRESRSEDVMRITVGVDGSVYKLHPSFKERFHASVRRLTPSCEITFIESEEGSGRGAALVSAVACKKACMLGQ
Put plainly: Determination of GK activity value (GST-hLGK1, Mant-ATP, capillary electrophoresis). The format is biochemical. The note with it: glucokinase activation; GST-hLGK1, D-glucose, 37° C. for 60 min; concentration at midpoint between maximum activity value and control group activity value. The procedure: Plasmid DNA to be used for the expression of a protein (GST-hLGK1) containing GST (Glutathione S-transferase) added to the amino terminal of human liver GK in Escherichia coli was prepared as follows.
BL21 strain (Stratagene) transformed with pGEX6P-2/hLGK1 obtained in Reference Example 1A was cultured with shaking at 37° C. for 14 hr in a 200 ml Erlenmeyer flask containing 50 ml of 100 μg/ml ampicillin-containing LB medium. The culture medium (25 ml) was diluted with 225 ml of 100 μg/ml ampicillin-containing LB medium, and further cultured with shaking at 37° C. for 1 hr in a 1 L Erlenmeyer flask. After culture, the Erlenmeyer flask was cooled on ice, 125 μL of 100 mM isopropyl-thio-β-D-galactopyranoside (IPTG) was added (final concentration 50 μM), and cultured at 17° C. for 20 hr. The culture medium was centrifuged, and the obtained fungus was disrupted by ultrasonication. The object protein (GST-hLGK1) was purified from the supernatant using Glutathione Sepharose 4B (Amersham Biosciences K.K.).
A solution (5 μL) of test compound in 50% dimethyl sulfoxide was added to each well of 384 well black plate (Nalge Nunc International K.K.). Then, a solution ([…]) obtained by diluting GST-hLGK1 obtained in Reference Example 2A with measurement buffer (containing 50 mM HEPES (pH 7.4), 200 mM KCl, 5 mM MgCl2, 2.5 mM DTT and 50 μM 2′-(or-3′)-O—(N-methylanthraniloyl)adenosine 5′-triphosphate (Mant-ATP) (Jena Bioscience GmbH)) to 6 μg/mL was added to each well.
Each well was stood at 37° C. for 10 min, and 25 mM D-glucose solution (10 μL) was added to start the reaction.
Each well after the reaction was stood at 37° C. for 60 min, and the reaction was quenched by adding 25 μL of a quenching solution (containing 200 mM HEPES (pH 7.4), 20 mM MgCl2, 200 mM EDTA, 0.03% Triton-X 100, 0.3% Coating 3 reagent (Caliper Life Sciences, Inc.)).
2′-(or-3′)-O—(N-methylanthraniloyl)adenosine 5′-triphosphate (Mant-ATP, substrate) and Mant-ADP (reaction resultant product) were separated from each well after the reaction by a microchip type capillary electrophoresis apparatus 250 HTS (Caliper Life Sciences, Inc.). The reaction rate [(reaction resultant product peak height)/(reaction resultant product peak height+substrate peak height)×100(%)] was calculated from the ratio of the substrate peak height and reaction resultant product peak height obtained by fluorescence detection (excitation wavelength 355 nm, measurement wavelength 460 nm) and used as the index of GK activity.
As a control group, the reaction rate was calculated in the same manner as above except that “solution in 50% dimethyl sulfoxide (without test compound)” was used instead of “solution of test compound in 50% dimethyl sulfoxide”.
A concentration dependency curve of the test compound was drawn with the percentage obtained by dividing the reaction rate of the well added with the test compound (test compound addition group) by the reaction rate of the control group was taken as the GK activity value of the test compound, and the concentration of the test compound at the midpoint between the maximum activity value of the test compound addition group and the control group activity value is shown as EC50 value.
Consider `CN(c1cccc2cc(C3=NCC(CN4CCOCC4)S3)[nH]c12)S(=O)(=O)c1cccs1` (single isomer, unassigned) [Example 274, N-methyl-N-{2-[5-(morpholinomethyl)-4,5-dihydro-1,3-thiazol-2-yl]-1H-indol-7-yl}thiophene-2-sulfonamide], for which the 50% effective concentration (EC50) came out at 81 nM. As for `O=S(=O)(c1cccs1)N(c1cccc2cc(C3=NCC(CN4CCOCC4)S3)[nH]c12)C(F)F` (single isomer, unassigned) [Example 348, N-(difluoromethyl)-N-{2-[5-(morpholinomethyl)-4,5-dihydro-1,3-thiazol-2-yl]-1H-indol-7-yl}thiophene-2-sulfonamide], the EC50 amounted to 44 nM. Consider `COCCOc1cc(N(C)S(=O)(=O)c2ccccn2)c2[nH]c(C3=NCC(CN4CC[S+]([O-])CC4)S3)cc2c1` (single isomer, unassigned) [Example 398, N-(5-(2-methoxyethoxy)-2-{5-[(1-oxidothiomorpholino)methyl]-4,5-dihydro-1,3-thiazol-2-yl}-1H-indol-7-yl)-N-methylpyridine-2-sulfonamide], for which the EC50 is 210 nM.

Test system in the next data set: not given
Assay: not given
Conditions: not given
The molecule `COc1ccccc1S(=O)(=O)N(C)c1cccc2cc(C3=NCC(CC(N)=O)S3)[nH]c12` (centres unmarked) [Example 308, 2-(2-{7-[[(2-methoxyphenyl)sulfonyl](methyl)amino]-1H-indol-2-yl}-4,5-dihydro-1,3-thiazol-5-yl)acetamide] registered a melting point of 227 to 228 °C. The same measure, in the same setting: the value for `COc1ccccc1S(=O)(=O)N(C)c1cccc2cc(C3=NCC(CC(=O)Nc4nnc[nH]4)S3)[nH]c12` (centres unmarked) [Example 310, 2-(2-{7-[[(2-methoxyphenyl)sulfonyl](methyl)amino]-1H-indol-2-yl}-4,5-dihydro-1,3-thiazol-5-yl)-N-4H-1,2,4-triazol-3-ylacetamide] was 208 to 209 °C; that for `COc1ccccc1S(=O)(=O)N(C)c1cccc2cc(C3=NCC(CC(=O)N4CCC(O)CC4)S3)[nH]c12` (centres unmarked) [Example 311, N-(2-{5-[2-(4-hydroxypiperidino)-2-oxoethyl]-4,5-dihydro-1,3-thiazol-2-yl}-1H-indol-7-yl)-2-methoxy-N-methylbenzenesulfonamide] was 166 to 167 °C; that for `CN(c1cccc2cc(C3=NCC(CC(=O)O)S3)[nH]c12)S(=O)(=O)c1ccccc1C(F)(F)F` (centres unmarked) [Example 314, {2-[7-(methyl{[2-(trifluoromethyl)phenyl]sulfonyl}amino)-1H-indol-2-yl]-4,5-dihydro-1,3-thiazol-5-yl}acetic acid] was 170 to 172 °C. As to `CN(c1cccc2cc(C3=NCC(CCO)S3)[nH]c12)S(=O)(=O)c1ccccc1C(F)(F)F` (centres unmarked) [Example 315, N-{2-[5-(2-hydroxyethyl)-4,5-dihydro-1,3-thiazol-2-yl]-1H-indol-7-yl}-N-methyl-2-(trifluoromethyl)benzenesulfonamide], the melting point fell in the range of 153 to 154 °C. On the same count and under the same terms, the value for `CN(c1cccc2cc(C3=NCC(CC(=O)N4CCC[C@H]4C(=O)O)S3)[nH]c12)S(=O)(=O)c1ccccc1C(F)(F)F` (stereo partly drawn) [Example 316, 1-({2-[7-(methyl{[2-(trifluoromethyl)phenyl]sulfonyl}amino)-1H-indol-2-yl]-4,5-dihydro-1,3-thiazol-5-yl}acetyl)-L-proline] was 132 to 135 °C; that for `CN(c1cccc2cc(C3=NCC(CN4CCS(=O)(=O)CC4)S3)[nH]c12)S(=O)(=O)c1ccccn1` (centres unmarked) [Example 318, N-(2-{5-[(1,1-dioxidothiomorpholino)methyl]-4,5-dihydro-1,3-thiazol-2-yl}-1H-indol-7-yl)-N-methylpyridine-2-sulfonamide] was 188 to 189 °C. The same measure, in the same setting: the same measure for `CN(c1cccc2cc(C3=NCC(CN4CC[S+]([O-])CC4)S3)[nH]c12)S(=O)(=O)c1nccn1C` (centres unmarked) [Example 320, N,1-dimethyl-N-(2-{5-[(1-oxidothiomorpholino)methyl]-4,5-dihydro-1,3-thiazol-2-yl}-1H-indol-7-yl)-1H-imidazole-2-sulfonamide]: 161 to 162 °C; for `CN(c1cc(OCCCS(C)(=O)=O)cc2cc(C3=NCC(CN4CCOCC4)S3)[nH]c12)S(=O)(=O)c1ccccn1` (centres unmarked) [Example 321, N-methyl-N-{5-[3-(methylsulfonyl)propoxy]-2-[5-(morpholinomethyl)-4,5-dihydro-1,3-thiazol-2-yl]-1H-indol-7-yl}pyridine-2-sulfonamide]: 168 to 169 °C; for `CN(c1cc(OCCCS(C)(=O)=O)cc2cc(C3=NCC(CN4CC[S+]([O-])CC4)S3)[nH]c12)S(=O)(=O)c1ccccn1` (centres unmarked) [Example 323, N-methyl-N-(5-[3-(methylsulfonyl)propoxy]-2-{5-[(1-oxidothiomorpholino)methyl]-4,5-dihydro-1,3-thiazol-2-yl}-1H-indol-7-yl)pyridine-2-sulfonamide]: 107 to 110 °C. On the same count and under the same terms, the value for `CC(=O)N1CCN(CC2CN=C(c3cc4cc(OCCCS(C)(=O)=O)cc(N(C)S(=O)(=O)c5ccccn5)c4[nH]3)S2)CC1` (centres unmarked) [Example 324, N-{2-{5-[(4-acetylpiperazin-1-yl)methyl]-4,5-dihydro-1,3-thiazol-2-yl}-5-[3-(methylsulfonyl)propoxy]-1H-indol-7-yl}-N-methylpyridine-2-sulfonamide] was 165 to 167 °C; that for `CN(c1cc(OCCCS(C)(=O)=O)cc2cc(C3=NCC(CN4CCN(S(C)(=O)=O)CC4)S3)[nH]c12)S(=O)(=O)c1ccccn1` (centres unmarked) [Example 325, N-methyl-N-{2-(5-{[4-(methylsulfonyl)piperazin-1-yl]methyl}-4,5-dihydro-1,3-thiazol-2-yl)-5-[3-(methylsulfonyl)propoxy]-1H-indol-7-yl}pyridine-2-sulfonamide] was 151 to 153 °C. Regarding `CN(c1cccc2cc(C3=NCC(CC(=O)O)S3)[nH]c12)S(=O)(=O)c1ccccn1` (centres unmarked) [Example 333, (2-{7-[methyl(pyridin-2-ylsulfonyl)amino]-1H-indol-2-yl}-4,5-dihydro-1,3-thiazol-5-yl)acetic acid], the melting point is 231 to 233 °C.

The molecule `CN(c1cccc2cc(C3=NCC(CC(N)=O)S3)[nH]c12)S(=O)(=O)c1ccccn1` (centres unmarked) [Example 334, 2-(2-{7-[methyl(pyridin-2-ylsulfonyl)amino]-1H-indol-2-yl}-4,5-dihydro-1,3-thiazol-5-yl)acetamide] came in with a melting point of 206 to 207 °C. Same read-out and setting: the value for `CN(c1cccc2cc(C3=NCC(CC(N)=O)S3)[nH]c12)S(=O)(=O)c1ccccn1` (centres unmarked) [Example 338, 2-(2-{7-[methyl(pyridin-2-ylsulfonyl)amino]-1H-indol-2-yl}-4,5-dihydro-1,3-thiazol-5-yl)acetamide] was 148 to 149 °C. Consider `O=S(=O)(c1cccs1)N(c1cccc2cc(C3=NCC(CN4CCOCC4)S3)[nH]c12)C(F)F` (centres unmarked) [Example 346, N-(difluoromethyl)-N-{2-[5-(morpholinomethyl)-4,5-dihydro-1,3-thiazol-2-yl]-1H-indol-7-yl}thiophene-2-sulfonamide], for which the melting point lay in the range of 185 to 186 °C. The same measure, in the same setting: the same measure for `CN(c1cc(OC(F)(F)F)cc2cc(C3=NCC(CC(N)=O)S3)[nH]c12)S(=O)(=O)c1cccs1` (centres unmarked) [Example 384, 2-{2-[7-[methyl(2-thienylsulfonyl)amino]-5-(trifluoromethoxy)-1H-indol-2-yl]-4,5-dihydro-1,3-thiazol-5-yl}acetamide]: 186 to 187 °C.

The values above are taken from US7777047B2, “Indole compound” (Takeda Pharmaceutical Company Limited, priority 2006, dated 2010).
